The subject of data set [1] is serum IgG. Nature of the data set: Seroprevalence of L. donovani-specific serum IgG (ELISA) in infected BALB/c mice. It is filed as in vivo. The note with it: serum 14 days post-infection. As for the experimental part: To make L. donovani crude antigens, L. donovani promastigotes and amastigotes were counted using a hemocytometer, spun at 800×g for 10 min, and washed three times with 1× phosphate buffered saline (PBS). After the final wash, parasites were resuspended in 1×PBS at a concentration of 1×10^8 promastigotes (amastigotes)/ml and lysed by 5 freeze and thaw cycles or by sonication at maximum speed for 5 cycles of 10 seconds with cooling, and frozen at −80° C. until needed for assay (Burns et al., 1993; Zijlstra et al., 1998). Protein concentration was determined by the BIORAD assay.
5 μg/ml of antigen in 100 mM carbonate-bicarbonate buffer […], were added to the wells of a 96 well polyvinyl plate (100 μl/well) and incubated at room temperature for 1 hr or overnight at 4° C. Wells were emptied, blocking buffer was added (200 μl/well), and wells were incubated at room temperature for 1 hr. Wells were emptied and 50 or 100 μl/well of diluted samples added (5× mice serum), and incubated for 1.5-2 hrs. Plates were washed 4× and an anti-mouse-IgG was diluted 1:500, and added (100 μl/well); these plates were incubated for 30 min in the dark and secondary antibody tagged to HRP was added at a dilution of 1:500. TMB-HRP developer was added 100 μl/well for 30 min in the dark and plates were read at 630 nm on a spectrophotometer (Zijlstra et al., 1998).
The purpose of the test was to confirm positive infectivity through levels of serum IgG in infected BALB/c mice. A high serum IgG level is predictive of an infection with visceral leishmaniasis. The results are expressed as percent increase or percent decrease in IgG levels. Four compounds with three different concentrations each were used for the tests.
Serum levels of IgG in infected but untreated mice increased by 20.36% compared to that of uninfected mice. […] Specific-parasite IgG antibodies produced by BALB/c mice inoculated with 10^6 infective concentrations of Leishmania donovani. Mice (n=2 per group) were infected subcutaneously at the base of their tail with log phase promastigotes. […] Serum from mice was obtained fourteen days post-infection and tested individually by ELISA to determine the specific levels of L. donovani IgG. Bars indicate the mean±S.E. (Standard Error) from two mice.
In general terms: ELISA stands for enzyme-linked immunosorbent assay.

The nature of data set [2]: In vivo cytotoxic assessment: serum AST and ALT in VL BALB/c mice. The note with it: compared with uninfected negative controls. Here is the method: Serum was collected from infected, treated and non-treated mice 14 days post infection and 7 days from the start of treatment for the determination of alanine amino transferase (ALT) and aspartate amino transferase (AST) activities. Assays were done in 96 well microtiter plates and samples and standards were run in duplicates or triplicates. For ALT, 2 μl of serum from infected treated and untreated samples were incubated with 10 μl of ALT substrate solution (1.78 g DL-alanine and 30 mg α-keto glutarate in 20 ml of phosphate buffer containing 1.25 ml of 0.4 M NaOH. Volume made up to 100 ml with buffer, pH 7.4. 1 ml of chloroform as preservative. Stable for 2 months at 2-8° C.), mixed and incubated at 37° C. for 30 minutes. 10 μl of dinitrophenolhydrazine (2,4 DNPH) was added. Blanks (ddH2O) and negative (not infected) samples were then added. Samples were mixed and incubated at room temperature for 20 minutes. 100 μl of 0.4 M NaOH was added, mixed and incubated at room temperature for 5 min. Plates were read at 490 nm. For AST, 2 μl of test and positive (infected, treated and untreated) samples were incubated with 10 μl of AST substrate solution (2.66 g DL-aspartic acid and 30 mg α-keto glutarate in 20.5 ml of 1 M NaOH pH 7.4, volume made up to 100 ml with phosphate buffer. 1 ml of chloroform was added as preservative. This was stable for 2 months at 2-8° C.) and incubated at 37° C. for 1 hr. 10 μl of 2,4 DNPH added and mixed. 2 μl of negative controls (not infected) and blanks (ddH2O) added and mixed and then incubated at room temperature for 20 min. 100 μl of 0.4 M NaOH was added, mixed and incubated at room temperature for 5 min and read at 490 nm. The enzyme activity was determined from the standard curve drawn using sodium pyruvate as standard solution (2 mM/ml pyruvate). Enzyme activities were expressed as units/ml. Reference ranges by this method are: AST; 0.096-3.8 U/ml and ALT; 0.112-3.0 U/ml. (Mallick et al., 2003; Reitman and Frankel, 1957).
In order to assess in vivo cytotoxicity of four naphthoquinone compounds (IMDNQ4, IMD8, IMDNQ 10, and IMDNQ 15), serum aspartate aminotransferase (AST), and alanine aminotransferase (ALT) levels were analyzed and compared to those in untreated controls. The assay range for AST is 0.096-3.8 U/ml (mean assay range is 1.95 U/ml) and for ALT assay, 0.112-3.0 U/ml (mean assay range is 1.56 U/ml). The results are expressed as percent increase or decrease in AST or ALT levels.

“And” between values parts separate entries of the source, which are not always exact repeats. Equal values may be shown once.

Consider `C[C@@H]1[C@H](O)[C@@H](C)/C=C/C=C/C=C/C=C/C=C/C=C/C=C/[C@H](O[C@@H]2O[C@H](C)[C@@H](O)[C@H](N)[C@@H]2O)C[C@@H]2O[C@](O)(C[C@@H](O)C[C@@H](O)[C@H](O)CC[C@@H](O)C[C@@H](O)CC(=O)O[C@H]1C)C[C@H](O)[C@H]2C(=O)O` [Am. B., Amphotericin B, reference compound], for which the “IgG Increase (%)” value in data set [1] (20 mg/kg) turned out to be 24.74%. For the same molecule, in data set [2] (20 mg/kg), the “Serum ALT Increase (%)” value is 100% and the “Serum AST Increase (%)” value worked out at 88.05%.
Turning to `CCCC(=O)N(C(=O)CCC)C1=C(Cl)C(=O)c2ccccc2C1=O` [IMDNQ15], the “IgG Increase (%)” value in data set [1] (5 mg/kg) is listed as 21.79%; in data set [1] (20 mg/kg), 14.12%; in data set [1] (50 mg/kg), 30.70%. Moreover, the “Serum ALT Increase (%)” value in data set [2] (5 mg/kg), in data set [2] (20 mg/kg) and in data set [2] (50 mg/kg) was 100% throughout. The “Serum AST Increase (%)” value in data set [2] (5 mg/kg) is 87.95%; in data set [2] (20 mg/kg), 90.34%; in data set [2] (50 mg/kg), 91.91%.
With `NC1=C(Br)C(=O)c2ccccc2C1=O` [IMD8, 2-Amino-3-bromo-1,4-naphthoquinone], the “IgG Increase (%)” value in data set [1] (5 mg/kg) came out at 20.94%; in data set [1] (20 mg/kg) it was 28.66%; in data set [1] (50 mg/kg), 23.16%. Also, the “Serum ALT Increase (%)” value in data set [2] (5 mg/kg), in data set [2] (20 mg/kg) and in data set [2] (50 mg/kg) was 100% throughout. The “Serum AST Increase (%)” value was 82.69% in data set [2] (5 mg/kg); 87.48% and 85.17% in data set [2] (20 mg/kg); 85.65% and 82.69% in data set [2] (50 mg/kg).
Regarding `O=C1C(Cl)=C(N(C(=O)c2cccc(Cl)c2)C(=O)c2cccc(Cl)c2)C(=O)c2ccccc21` [IMDNQ4, 3-Chloro-N-(3-chlorobenzoyl)-N-(3-chloro-1,4-dioxo-1,4-dihydronaphthalen-2-yl)-benzamide], the figures for the “IgG Increase (%)” value in data set [1] (5 mg/kg), in data set [1] (20 mg/kg) and in data set [1] (50 mg/kg) were 11.34%, 6.81% and 26.76%, respectively. Besides, the “Serum ALT Increase (%)” value in data set [2] (5 mg/kg), in data set [2] (20 mg/kg) and in data set [2] (50 mg/kg) was 100% in each case. Moreover, the “Serum AST Increase (%)” value in data set [2] (5 mg/kg) is 87.40%; in data set [2] (20 mg/kg), 87.48%; in data set [2] (50 mg/kg), 85.65%.

The values are drawn from US20140336187A1, “METHODS FOR TREATING LEISHMANIASIS” (HOWARD UNIVERSITY, priority 2011, published 2014).
